Columns and labels:
[1] = progressive disease before treatment; cited from earlier work
[2] = Phospholipid specificity ELISA; format: binding; settings: phospholipid-coated plates
Procedure: The specificity of the antibodies was determined by ELISA using plates coated with the following phospholipids: PS, phosphatidylserine; PE, phosphatidylethanolamine; PI, phosphatidylinositol; PA, phosphatidic acid; PG, phosphatidylglycerol; PC, phosphatidylcholine; CL, cardiolipin; and SM, sphingomyelin.

Factor X = assay: Chromogenic assay of coaguligand-induced Factor Xa formation on bEnd.3 cells; format: cell-based; settings: Annexin V 10 μg per ml; cells preincubated with anti-VCAM-1•tTF
Procedure: The ability of Annexin V to affect Factor Xa formation induced by coaguligand was determined by a chromogenic assay. IL-1α-stimulated bEnd.3 cells were incubated with anti-VCAM-•tTF and permeabilized by saponin. Annexin V was added at concentrations ranging from 0.1 to 10 μg/ml and cells were incubated for 30 min. before addition of diluted Proplex T. The amount of Factor Xa generated in the presence or absence of Annexin V was determined. Each treatment was performed in duplicate and repeated at least twice.
Annexin V added to permeabilized cells preincubated with anti-VCAM-1•tTF inhibited the formation of factor Xa in a dose-dependent manner. In the absence of Annexin V, cell-bound coaguligand produced 95 ng of factor Xa per 10,000 cells per 60 min. The addition of increasing amounts of Annexin V (in the μg per ml range) inhibited factor Xa production. At 10 μg per ml, Annexin V inhibited factor Xa production by 58%.

[3] = system: anionic phospholipids on vascular endothelium; assay: Localization of 9D2 and annexin V in tumor bearing mice, indirect immunohistochemistry; format: in vivo; settings: 50 μg antibody or 100 μg biotinylated annexin V i.v., 60 min
Procedure: To detect externally-positioned phospholipids, methods were performed essentially as previously described (Example V; Ran et al., 1998). Tumor-bearing SCID mice were injected intravenously with either 50 μg of 9D2 or biotinylated 9D2 antibody or 100 μg of biotinylated annexin V. Sixty min later mice were sacrificed and their blood circulation was exsanguinated and perfused with heparinized saline as previously described (Burrows et al., 1992). All major organs and tumor were harvested and snap-frozen for preparation of cryosections.
Sections were blocked with PBS containing 10% serum. To prevent loss of phospholipids during slide processing, detergents and organic solvents were omitted from blocking and washing buffers. Rat IgM was detected using goat anti rat IgM (μ specific)-HRP conjugate followed by development with carbazole or DAB (Fries et al., 1993). Biotinylated reagents were detected by streptavidin conjugated to HRP.
Tumor sections derived from mice injected with saline or rat IgM of irrelevant specificity served as negative controls. […] No signal was detected under these conditions. The number of positive vessels per high power field was determined at magnification of ×100. At least 10 fields per section were examined and the average percentage of positive vessels was calculated. […]
Structures with localized 9D2 antibody or annexin V were identified as blood vessels by morphological appearance on DAB-stained sections and by co-incident staining with the pan-endothelial cell marker, MECA 32 on serial sections of frozen tissues. Quantification on DAB-stained sections was done by counting vessels stained by MECA 32, 9D2 or annexin V in serial sections of a tumor. […] At least 10 random fields per section (0.317 mm^2/field) were scored in blinded fashion by two independent observers. The mean numbers and standard errors of vessels stained by 9D2, annexin V or MECA 32 were calculated. The mean number of 9D2 or annexin V-positive vessels determined in each tumor type group was compared to the mean number of MECA 32-positive vessels in the same tumor group. […]

[4] = ELISA binding to anionic phospholipids in 5 mM EDTA (Ca2+ requirement)
Procedure: The specificity of the 9D2 antibody binding was validated by using control rat IgM of irrelevant specificity (Pharmingen, San Diego, Calif.). The specificity of annexin V binding to phospholipids, which is Ca^2+-dependent, was determined by diluting the reagent in the DPBS containing 5 mM EDTA. Additional negative controls consisted of washing the plates with the binding buffer containing 0.2% of a detergent Tween 20. This treatment extracts lipids, thus removing the phospholipid that was absorbed to plastic. Neither 9D2 antibody nor annexin V bound to detergent-washed plates.

[5] = system: blood vessels of L540 Hodgkin tumors; assay: Annexin V inhibition of coaguligand-induced thrombosis in vivo; parameters: species or system SCID mice; settings: 100 μg Annexin V 2 hours before 40 μg anti-VCAM-1•tTF
Procedure: The ability of Annexin V to inhibit coaguligand-induced thrombosis in vivo was examined in L540 Hodgkin-bearing SCID mice. Tumors were grown in mice and two mice per group (tumor size 0.5 cm in diameter) were injected intravenously via the tail vein with one of the following reagents: a) saline; b) 100 μg of Annexin V; c) 40 μg of anti-VCAM-1•tTF; d) 100 μg of Annexin V followed 2 hours later by 40 μg of anti-VCAM-1•tTF.
Four hours after the last injection mice were anesthetized and perfused with heparinized saline. Tumors were removed, fixed with 4% formalin, paraffin-embedded and stained with hematoxylene-eosin. The number of thrombosed and non-thrombosed blood vessels was counted and the percentage of thrombosis was calculated.

[6] = system: vascular endothelium of MDA-MB-231 breast tumors; assay: Double staining of orthotopic MDA-MB-231 tumors after i.v. biotinylated 9D2 or annexin V; format: in vivo, mice; settings: 1 h
Procedure: In further studies, mice bearing MDA-MB-231 tumors (0.3-0.7 cm^3 in volume) were injected intravenously with 50 μg of biotinylated 9D2, control IgM or annexin V (six mice per group). Biotinylated reagents were first incubated with streptavidin-Cy3 conjugate, washed in PBS, then incubated with MECA 32 antibody followed by FITC-tagged anti-rat IgG secondary antibody. Single images, taken with appropriate filters for Cy3 (red) and FITC (green) fluorescence respectively, were captured by digital camera and transferred to a computer. […] The same method was used to analyze tumors from mice injected with control rat IgM or saline. The percentage of vessels with localized 9D2 or annexin V was calculated as follows: mean number of yellow vessels per field divided by mean number of green (total) vessels multiplied by 100.
Double staining studies were also performed in which mice bearing orthotopic MDA-MB-231 breast tumors were injected intravenously with biotinylated 9D2 antibody, biotinylated control IgM or biotinylated annexin V. One hour later, the mice were exsanguinated, and their tumors were removed and frozen sections were cut. The tumor sections were then stained with Cy3-conjugated streptavidin to detect the biotinylated proteins and with FITC-conjugated MECA32 to detect vascular endothelium. […]

[7] = Binding of chimeric 3G4 to phospholipid-coated ELISA plates
Description: FIG. 21. […] Phospholipids (PS, PI, PE, PC, SM, CL, PG and PA) were adsorbed to plastic of microtiter plates.

[8] = system: tumor vascular endothelium of MDA-MB-435 tumors; assay: Localization of biotinylated ch3G4 in tumors; format: in vivo, mice; settings: i.v., one hour
Procedure: Localization of ch3G4 was examined in MDA-MB-435 human breast cancer cells growing in mice. Mice were injected intravenously with biotinylated ch3G4 or control IgG of irrelevant specificity. One hour later, the mice were exsanguinated, and their tumors were removed and frozen sections were cut. Biotinylated reagents were first incubated with streptavidin-Cy3 conjugate, washed in PBS, then incubated with MECA 32 antibody followed by FITC-tagged secondary antibody. Single images, taken with appropriate filters for Cy3 (red) and FITC (green) fluorescence respectively, were captured by digital camera and transferred to a computer.

[9] = system: Vaccinia virus-infected U937 cells; format: cell-based; settings: day 2 after infection, m.o.i. 2
[10] = system: orthotopic MDA-MB-435 breast cancer; assay: 3G4 and ch3G4 tumor treatment; format: in vivo, mice; settings: i.p. 800 μg day 15, 200 μg every two to three days, 400 μg day 35
Procedure: Tumors were also established using MD-MBA-435s cells and treated as described above. […] The treatment of large L540 tumors, MDA-MB-231 and MD-MBA-435s tumor cells for 60 days is shown in FIG. 8D, FIG. 8E and FIG. 8F. The antibodies caused tumor vascular injury, thrombosis and necrosis and retarded tumor growth, with no evidence of toxicity.
MD-MBA-435s lucerifase cells were obtained from Dr. Angels Sierra Jimenez, Barcelona, Spain and were grown in 10% DMEM. Mice were injected with tumor cells as described as above, and at 2 weeks post injection, the tumors were measured and the volume recorded. […] Treatment was initiated by IP injection (800 μg) at day 15 and continued with injections of 200 μg every two to three days until the final injection of 400 μg at day 35. Tumor volumes and mouse body weights were measured on injection days. Mice were sacrificed and perfused with saline for 12 minutes. The organs and tumor were removed, snap-frozen in liquid nitrogen and the tumor sectioned for immunohistochemistical analysis.

mCMV RVG102 = assay: Survival of mCMV-infected mice; format: in vivo, Balb/C mice; settings: 1 mg/mouse i.p. day 1, 0.5 mg/mouse every four days until day 26; past 90 days

Compound: NC(=O)c1nnn(Cc2cc(Cl)c(C(=O)c3ccc(Cl)cc3)c(Cl)c2)c1N [CAI, carboxyamidotriazole]
- cancer patients with disease stabilization [1]: 49%

Compound: Annexin V: natural ligand that binds to anionic phospholipids; commercial biotinylated or recombinant human annexin V
- Relative Strength of Reactivity on ELISA [2]: PS = PE = PI = PA > CL > PG
- inhibition of factor Xa production (Factor X): 58%
- positive vessels of MECA 32-stained vessels per field, mean ± SE ([3]; B16 tumor): 21.3 ± 6.6%
- positive vessels of MECA 32-stained vessels per field, mean ± SE ([3]; L540cy tumor): 16.7 ± 3.9%
- positive vessels of MECA 32-stained vessels per field, mean ± SE ([3]; MDA-MB-231 tumor): 45.3 ± 5.6%
- binding to anionic phospholipids in the presence of 5 mM EDTA [4]: abolished in the presence of 5 mM EDTA
- coaguligand-induced intravascular thrombosis and changes in tumor cell morphology [5]: completely abolished
- MECA 32 positive vessels that bound the reagent [6]: About 40%

Compound: ch3G4: human-mouse chimeric 3G4: murine variable regions on human γ1 and κ constant regions, expressed in CHO cells
- binding to phospholipid-coated ELISA plates [7]: bound at least as did well as the murine 3G4
- localization to tumor vascular endothelium [8]: binds to the tumor vascular endothelium
- binding to virus-infected vs uninfected cells (FACS) [9]: significant shift
- tumor growth as opposed to control [10]: effectively retarded tumor growth
- survival (mCMV RVG102): 80%
